# According to patent US10927111B2, “Inhibitors of RAF kinases” (Kinnate Biopharma Inc., priority 2019, dated 2021):
# Molecular target: human RAF1 (Homo sapiens (Human), UniProt P04049)
# Experiment: Protein kinase assay (radiometric 33P-ATP, MEK1 (K97R) substrate)
# Type: biochemical
# Conditions: human MEK1 (K97R) substrate 3 micromolar, ATP 10 micromolar, 10-dose IC50 mode; read-out: RAF-1 IC50
# Method: Protein kinase assay: Assay platform was used to measure kinase/inhibitor interactions as described previously (Anastassiadis et al., 2011). In brief, for each reaction, kinase and substrate were mixed in a buffer containing 20 mM HEPES (pH 7.5), 10 mM MgCl2, 1 mM EGTA, 0.02% Brij35, 0.02 mg/mL BSA, 0.1 mM Na3VO4, 2 mM DTT, and 1% DMSO. All compounds were solubilized in DMSO. Compounds were then added to each reaction mixture via acoustic dispense using an ECHO 550 nanoliter dispenser. For human RAF1 testing, human MEK1 (K97R) was used as a substrate at a concentration of 3 micromolar, with a final ATP concentration of 10 micromolar. For human BRAF testing, human MEK1 (K97R) was used as a substrate at 1 micromolar concentration, with a final ATP concentration of 25 micromolar. […] After a 20-min incubation, ATP (Sigma-Aldrich, St. Louis, Mo. 63178) and [g33P] ATP (specific activity 10 microCi/microliter) purchased at PerkinElmer (Boston, Mass., 02118 Cat #BLU 003H250UC) were added at a final total concentration of 10 mM. Reactions were carried out at room temperature for 2 hr and spotted onto P81 ionexchange cellulose chromatography paper (Reaction Biology). Filter paper was washed in 0.75% phosphoric acid to remove unincorporated ATP. The percent remaining kinase activity relative to a vehicle-containing (DMSO) kinase reaction was calculated for each kinase/inhibitor pair. IC50 values were calculated using Prism 5 (GraphPad).
# Sequence of human RAF1 (P04049 whole entry): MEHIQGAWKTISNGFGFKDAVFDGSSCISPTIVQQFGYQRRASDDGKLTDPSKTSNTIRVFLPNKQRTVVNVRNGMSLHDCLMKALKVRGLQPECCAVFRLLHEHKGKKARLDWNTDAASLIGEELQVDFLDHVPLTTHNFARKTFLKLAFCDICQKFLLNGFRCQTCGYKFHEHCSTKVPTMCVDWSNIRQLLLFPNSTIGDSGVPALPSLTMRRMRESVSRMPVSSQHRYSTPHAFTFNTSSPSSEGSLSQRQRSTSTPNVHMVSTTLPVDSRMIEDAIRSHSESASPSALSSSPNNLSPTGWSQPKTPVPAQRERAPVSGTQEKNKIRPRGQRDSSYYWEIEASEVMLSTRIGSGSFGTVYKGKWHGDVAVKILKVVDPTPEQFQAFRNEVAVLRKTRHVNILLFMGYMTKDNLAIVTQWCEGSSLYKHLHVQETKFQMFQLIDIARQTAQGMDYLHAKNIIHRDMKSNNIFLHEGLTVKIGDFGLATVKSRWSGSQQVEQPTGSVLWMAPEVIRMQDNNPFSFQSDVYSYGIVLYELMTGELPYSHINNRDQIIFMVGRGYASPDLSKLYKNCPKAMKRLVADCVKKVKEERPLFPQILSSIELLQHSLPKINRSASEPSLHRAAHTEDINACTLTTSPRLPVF
row,SMILES,IC50 [nM]
1,"CNc1ncc2cc(-c3cc(NC(=O)N4CCO[C@@H](C(F)(F)F)C4)c(F)cc3C)cnc2n1 [Example 62, (2R)-N-[2-fluoro-4-methyl-5-[2-(methylamino)pyrido[2,3-d]pyrimidin-6-yl]phenyl]-2-(trifluoromethyl)morpholine-4-carboxamide]",≤ 10
2,"CCOc1nc2nc(NC)ncc2cc1-c1cc(NC(=O)c2ccnc(C(F)(F)F)c2)ccc1C [Example 69, N-[3-[7-ethoxy-2-(methylamino)pyrido[2,3-d]pyrimidin-6-yl]-4-methylphenyl]-2-(trifluoromethyl)pyridine-4-carboxamide]",≤ 10
3,"CCc1nc2nc(NC)ncc2cc1-c1cc(NC(=O)c2ccnc(C(F)(F)F)c2)ccc1C [Example 36, N-(3-(7-ethyl-2-(methylamino)pyrido[2,3-d]pyrimidin-6-yl)-4-methylphenyl)-2-(trifluoromethyl)isonicotinamide]",≤ 10
4,"CNc1ncc2cc(-c3cc(NC(=O)N4CC[C@H](CC(F)(F)F)C4)c(F)cc3C)cnc2n1 [Example 30, (R)-N-(2-fluoro-4-methyl-5-(2-(methylamino)pyrido[2,3-d]pyrimidin-6-yl)phenyl)-3-(2,2,2-trifluoroethyl)pyrrolidine-1-carboxamide]",≤ 10
5,"CNc1ncc2cc(-c3cc(NC(=O)N4CCC(C(C)(C)C)C4)c(F)cc3C)c(C)nc2n1 (stereo not shown) [Example 21, 3-(tert-butyl)-N-(2-fluoro-4-methyl-5-(7-methyl-2-(methylamino)pyrido[2,3-d]pyrimidin-6-yl)phenyl)pyrrolidine-1-carboxamide]",≤ 10
6,"CNc1ncc2cc(-c3cc(NC(=O)N4CC[C@H](CC(F)(F)F)C4)ccc3C)c(C)nc2n1 [Example 19, (R)-N-(4-methyl-3-(7-methyl-2-(methylamino)pyrido[2,3-d]pyrimidin-6-yl)phenyl)-3-(2,2,2-trifluoroethyl)pyrrolidine-1-carboxamide]",≤ 10
7,"Cc1ccc(NC(=O)c2ccnc(C(F)(F)F)c2)cc1-c1cc2cnc(N)nc2nc1C [Example 48, N-(3-(2-amino-7-methylpyrido[2,3-d]pyrimidin-6-yl)-4-methylphenyl)-2-(trifluoromethyl)isonicotinamide]",≤ 10

# Now from value to compound:
row,IC50 [nM],SMILES
1,≤ 10,"Cc1ccc(NC(=O)c2ccnc(C(F)(F)F)c2)cc1-c1cc2cnc(NC3CC3)nc2nc1C [Example 37, N-(3-(2-(cyclopropylamino)-7-methylpyrido[2,3-d]pyrimidin-6-yl)-4-methylphenyl)-2-(trifluoromethyl)isonicotinamide]"
2,≤ 10,"CNc1ncc2cc(-c3cc(NC(=O)N4CCO[C@@H](C(F)(F)F)C4)ccc3C)c(C)nc2n1 [Example 12, (2R)-N-[4-methyl-3-[7-methyl-2-(methylamino)pyrido[2,3-d]pyrimidin-6-yl]phenyl]-2-(trifluoromethyl)morpholine-4-carboxamide]"
3,≤ 10,"CNc1ncc2cc(-c3cc(NC(=O)c4ccnc(C(C)(F)F)c4)ccc3C)c(C)nc2n1 [Example 52, 2-(1,1-difluoroethyl)-N-[4-methyl-3-[7-methyl-2-(methylamino)pyrido[2,3-d]pyrimidin-6-yl]phenyl]pyridine-4-carboxamide]"
4,≤ 10,"CNc1ncc2cc(-c3cc(NC(=O)c4ccnc(C(F)(F)F)c4)ccc3C)c(C#N)nc2n1 [Example 72, N-[3-[7-cyano-2-(methylamino)pyrido[2,3-d]pyrimidin-6-yl]-4-methylphenyl]-2-(trifluoromethyl)pyridine-4-carboxamide]"

# Same assay, conditions: read-out: RAF-1 IC50
row,IC50 [nM],SMILES
1,≤ 10,"CNc1ncc2cc(-c3cc(NC(=O)N4CCO[C@H](CC(F)(F)F)C4)c(F)cc3C)c(C)nc2n1 [Example 25, (R)-N-(2-fluoro-4-methyl-5-(7-methyl-2-(methylamino)pyrido[2,3-d]pyrimidin-6-yl)phenyl)-2-(2,2,2-trifluoroethyl)morpholine-4-carboxamide]"
2,≤ 10,"CNc1ncc2cc(-c3cc(NC(=O)c4ccnc(C(F)(F)F)c4)ccc3C)c(OC)nc2n1 [Example 68, N-[3-[7-methoxy-2-(methylamino)pyrido[2,3-d]pyrimidin-6-yl]-4-methylphenyl]-2-(trifluoromethyl)pyridine-4-carboxamide]"
